From publication PMC7096432, “Transport and kinase activities of CbrA of Pseudomonas putida KT2440” (Scientific Reports, 2020)

Key:
CbrAΔSLC5 = biological target: T1, CbrAΔSLC5 (Pseudomonas putida, UniProt Q88DX3); assay: autophosphorylation, SDS-PAGE; assay type: biochemical; conditions: 50 mM Tris-HCl pH 7.5, 10 mM MgCl2, 360 mM KCl, 30 °C; labelled compound
T1 construct: gene PP_4695; cytoplasmic domains, residues 614-992, C-terminal 12His tag, 44 kDa predicted, E. coli C41, Ni-NTA purified
T1 sequence (Q88DX3 614-991): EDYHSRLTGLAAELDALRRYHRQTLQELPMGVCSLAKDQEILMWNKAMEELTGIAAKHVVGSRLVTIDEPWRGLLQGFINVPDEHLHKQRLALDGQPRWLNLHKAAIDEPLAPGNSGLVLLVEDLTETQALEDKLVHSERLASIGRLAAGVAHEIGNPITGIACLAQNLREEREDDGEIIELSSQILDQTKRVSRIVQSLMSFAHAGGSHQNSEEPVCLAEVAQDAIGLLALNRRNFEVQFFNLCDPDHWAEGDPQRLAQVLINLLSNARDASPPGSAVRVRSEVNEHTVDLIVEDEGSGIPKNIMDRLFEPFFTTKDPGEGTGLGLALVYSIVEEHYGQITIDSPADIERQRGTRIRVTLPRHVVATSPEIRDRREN

PAS domain of CbrA [1] = biological target: T2, PAS domain of CbrA (Pseudomonas putida, UniProt Q88DX3); assay: thermal shift titration, nanoDSF; assay type: binding
T2 construct: gene PP_4695; PAS domain, residues 614-745, C-terminal 12His tag, E. coli BL21 / C43, Ni-NTA purified
T2 sequence (Q88DX3 614-745): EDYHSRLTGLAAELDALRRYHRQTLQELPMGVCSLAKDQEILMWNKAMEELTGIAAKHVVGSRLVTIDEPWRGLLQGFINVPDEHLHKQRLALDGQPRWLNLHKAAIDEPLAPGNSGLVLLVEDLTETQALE

PAS domain of CbrA [2] = biological target: T2, PAS domain of CbrA; assay: thermal shift, nanoDSF; assay type: binding; conditions: read-out: dTm at 1 mM
CbrA = biological target: T3, CbrA (Pseudomonas putida, UniProt Q88DX3); assay: DRaCALA, E. coli C43 membrane vesicles; assay type: binding; conditions: 1.35 µM ligand, 100 mM KPi pH 7.5, 25 °C; labelled compound
T3 construct: gene PP_4695; full length, 109 kDa predicted
T3 sequence (Q88DX3 1-991): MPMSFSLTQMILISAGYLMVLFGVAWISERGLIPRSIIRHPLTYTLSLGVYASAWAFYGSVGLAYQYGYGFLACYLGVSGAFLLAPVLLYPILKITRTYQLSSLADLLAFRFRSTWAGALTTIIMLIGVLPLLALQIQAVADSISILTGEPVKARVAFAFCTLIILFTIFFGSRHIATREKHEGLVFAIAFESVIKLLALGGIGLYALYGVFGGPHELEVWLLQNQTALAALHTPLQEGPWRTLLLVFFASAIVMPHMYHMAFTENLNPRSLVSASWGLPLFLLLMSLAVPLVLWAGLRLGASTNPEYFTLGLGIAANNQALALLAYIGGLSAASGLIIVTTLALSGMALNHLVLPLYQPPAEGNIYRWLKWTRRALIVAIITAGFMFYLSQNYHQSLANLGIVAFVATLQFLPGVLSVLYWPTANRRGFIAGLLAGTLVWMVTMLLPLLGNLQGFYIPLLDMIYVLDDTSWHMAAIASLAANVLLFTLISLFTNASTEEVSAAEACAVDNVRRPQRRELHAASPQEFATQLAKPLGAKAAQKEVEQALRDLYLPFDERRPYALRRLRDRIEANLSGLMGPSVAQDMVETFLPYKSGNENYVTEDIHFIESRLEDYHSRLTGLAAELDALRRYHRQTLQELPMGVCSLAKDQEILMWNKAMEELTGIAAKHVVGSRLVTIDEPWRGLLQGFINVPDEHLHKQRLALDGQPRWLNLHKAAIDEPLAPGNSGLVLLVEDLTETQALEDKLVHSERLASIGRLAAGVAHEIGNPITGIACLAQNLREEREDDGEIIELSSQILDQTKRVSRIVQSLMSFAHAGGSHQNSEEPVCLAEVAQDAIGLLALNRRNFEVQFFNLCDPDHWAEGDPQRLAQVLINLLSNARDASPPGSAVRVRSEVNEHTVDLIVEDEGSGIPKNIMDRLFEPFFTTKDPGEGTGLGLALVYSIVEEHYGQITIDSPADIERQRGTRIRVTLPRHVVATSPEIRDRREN

SLC5 domain of CbrA = biological target: T4, SLC5 domain of CbrA (Pseudomonas putida, UniProt Q88DX3); assay: DRaCALA, E. coli C43 membrane vesicles; assay type: binding; conditions: 1.35 µM ligand, 100 mM KPi pH 7.5, 25 °C; labelled compound
T4 construct: gene PP_4695; SLC5 transporter domain, residues 3-544
T4 sequence (Q88DX3 3-544): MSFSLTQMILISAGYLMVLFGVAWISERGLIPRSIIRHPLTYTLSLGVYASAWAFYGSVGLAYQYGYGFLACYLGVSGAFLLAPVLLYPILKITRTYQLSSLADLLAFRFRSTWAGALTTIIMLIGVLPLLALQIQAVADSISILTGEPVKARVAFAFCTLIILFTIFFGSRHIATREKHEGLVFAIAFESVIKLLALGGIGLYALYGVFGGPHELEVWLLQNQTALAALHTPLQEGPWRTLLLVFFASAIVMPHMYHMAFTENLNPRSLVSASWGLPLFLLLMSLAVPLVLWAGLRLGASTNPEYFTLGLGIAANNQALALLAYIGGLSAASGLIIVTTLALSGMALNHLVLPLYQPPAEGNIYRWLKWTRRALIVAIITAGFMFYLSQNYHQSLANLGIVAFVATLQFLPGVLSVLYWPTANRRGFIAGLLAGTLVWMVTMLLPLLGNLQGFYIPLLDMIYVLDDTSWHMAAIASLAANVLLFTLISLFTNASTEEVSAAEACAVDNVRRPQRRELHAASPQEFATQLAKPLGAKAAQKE

[3] = substrate: N[C@@H](Cc1c[nH]cn1)C(=O)O; assay: 3H-L-histidine uptake into P. putida LW1 cells; assay type: cell-based, Pseudomonas putida; conditions: transport, 100 mM Tris/MES pH 6.0, 25 °C, energized with 10 mM D-lactate, background subtracted, labelled compound

Molecule: Nc1ncnc2c1ncn2[C@@H]1O[C@H](COP(=O)(O)OP(=O)(O)OP(=O)(O)O)[C@@H](O)[C@H]1O [γ-32P-ATP]
- autophosphorylation, 32P SDS-PAGE (CbrAΔSLC5): catalyzed both autophosphorylation and transfer of the phosphoryl group to CbrB

Molecule: N[C@@H](Cc1cnc[nH]1)C(=O)O [L-histidine]
- Kd (PAS domain of CbrA [1]): 43 ± 13 µM
- ΔTm at 1000 µM (PAS domain of CbrA [2]): 0.73 ± 0.13 °C
- bound fraction (CbrA): evidence for binding of ^3H-L-histidine to CbrA and the SLC5 domain
- bound fraction (SLC5 domain of CbrA): evidence for binding of ^3H-L-histidine to CbrA and the SLC5 domain

B1: CbrA (Pseudomonas putida KT2440) (protein)
chain: MPMSFSLTQMILISAGYLMVLFGVAWISERGLIPRSIIRHPLTYTLSLGVYASAWAFYGSVGLAYQYGYGFLACYLGVSGAFLLAPVLLYPILKITRTYQLSSLADLLAFRFRSTWAGALTTIIMLIGVLPLLALQIQAVADSISILTGEPVKARVAFAFCTLIILFTIFFGSRHIATREKHEGLVFAIAFESVIKLLALGGIGLYALYGVFGGPHELEVWLLQNQTALAALHTPLQEGPWRTLLLVFFASAIVMPHMYHMAFTENLNPRSLVSASWGLPLFLLLMSLAVPLVLWAGLRLGASTNPEYFTLGLGIAANNQALALLAYIGGLSAASGLIIVTTLALSGMALNHLVLPLYQPPAEGNIYRWLKWTRRALIVAIITAGFMFYLSQNYHQSLANLGIVAFVATLQFLPGVLSVLYWPTANRRGFIAGLLAGTLVWMVTMLLPLLGNLQGFYIPLLDMIYVLDDTSWHMAAIASLAANVLLFTLISLFTNASTEEVSAAEACAVDNVRRPQRRELHAASPQEFATQLAKPLGAKAAQKEVEQALRDLYLPFDERRPYALRRLRDRIEANLSGLMGPSVAQDMVETFLPYKSGNENYVTEDIHFIESRLEDYHSRLTGLAAELDALRRYHRQTLQELPMGVCSLAKDQEILMWNKAMEELTGIAAKHVVGSRLVTIDEPWRGLLQGFINVPDEHLHKQRLALDGQPRWLNLHKAAIDEPLAPGNSGLVLLVEDLTETQALEDKLVHSERLASIGRLAAGVAHEIGNPITGIACLAQNLREEREDDGEIIELSSQILDQTKRVSRIVQSLMSFAHAGGSHQNSEEPVCLAEVAQDAIGLLALNRRNFEVQFFNLCDPDHWAEGDPQRLAQVLINLLSNARDASPPGSAVRVRSEVNEHTVDLIVEDEGSGIPKNIMDRLFEPFFTTKDPGEGTGLGLALVYSIVEEHYGQITIDSPADIERQRGTRIRVTLPRHVVATSPEIRDRREN
notes: full length, 109 kDa predicted
- Km [3]: 0.7 ± 0.2 µM

B2: SLC5 domain of CbrA (Pseudomonas putida KT2440) (protein)
chain: MSFSLTQMILISAGYLMVLFGVAWISERGLIPRSIIRHPLTYTLSLGVYASAWAFYGSVGLAYQYGYGFLACYLGVSGAFLLAPVLLYPILKITRTYQLSSLADLLAFRFRSTWAGALTTIIMLIGVLPLLALQIQAVADSISILTGEPVKARVAFAFCTLIILFTIFFGSRHIATREKHEGLVFAIAFESVIKLLALGGIGLYALYGVFGGPHELEVWLLQNQTALAALHTPLQEGPWRTLLLVFFASAIVMPHMYHMAFTENLNPRSLVSASWGLPLFLLLMSLAVPLVLWAGLRLGASTNPEYFTLGLGIAANNQALALLAYIGGLSAASGLIIVTTLALSGMALNHLVLPLYQPPAEGNIYRWLKWTRRALIVAIITAGFMFYLSQNYHQSLANLGIVAFVATLQFLPGVLSVLYWPTANRRGFIAGLLAGTLVWMVTMLLPLLGNLQGFYIPLLDMIYVLDDTSWHMAAIASLAANVLLFTLISLFTNASTEEVSAAEACAVDNVRRPQRRELHAASPQEFATQLAKPLGAKAAQKE
notes: SLC5 transporter domain, residues 3-544
- Km [3]: 0.58 ± 0.18 µM
